For 33 compounds, IC50 results are on record in patent publication US20240051956A1, “SOS1 INHIBITORS AND USES THEREOF” (QILU REGOR THERAPEUTICS INC., priority 2020, published 2024).

The target in assay [1] is SOS1 and KRAS G12D (Homo sapiens (Human), UniProt Q07889). The experiment in a line: KRAS::SOS1 AlphaScreen Binding Assay. Conditions: SOS1 (564-1049), KRAS G12D (1-169), GDP. From the text: a. KRAS::SOS1 AlphaScreen Binding Assay
Low IC50 values of given compounds are indicative of high potency of the SOS1 inhibitor compounds in this assay setting.
• GST-TEV-SOS1 (564-1049) and His-TEV-Avi-KRAS G12D (1-169) are purchased from Viva Biotech (Shanghai) Ltd. • GDP (Sigma, Cat. G7127) • AlphaLISA Glutathione Acceptor Beads (PerkinElmer, Cat. AL109C) • AlphaScreen Streptavidin Donor Beads (PerkinElmer, Cat. 6760002S) • Assay plates: ProxiPlate-384 Plus, White 384-shallow well Microplate (PerkinElmer, Cat. 6008280)
SOS1 inhibitor compounds are diluted to a final start concentration of […]. Serial dilutions of compounds are made using Tecan D300e Digital Dispenser in 9 concentrations with serial 1:3 dilutions. 100 nL of compound solution is transferred to the 384-well assay plate per well, covering a range between 1 μM and 0.15 nM minimum in duplicate. 10 nM (final assay concentration) KRAS G12D, 5 nM (final assay concentration) SOS1 and 10 μM (final assay concentration) GDP are mixed in assay buffer, and 5 μL of KRAS::SOS1 GDP mix is added into the assay plate to the 100 nL of compound solution (final dilution in the assay 1:100, final DMSO concentration 1%). After a 30 min incubation, AlphaLISA Glutathione Acceptor Beads and AlphaScreen Streptavidin Donor Beads are mixed in assay buffer at a concentration of 5 µg/mL (final assay concentration), and 5 μL of bead mix is added into the assay plate. Plates are kept at room temperature in a darkened incubator for 3 h. After a 3 h incubation, the signal is determined using Envision (PerkinElmer). The excitation wavelength is 680 nm, and emission 615 nm. IC50 values are calculated and analyzed using GraphPad Prism.

Assay [2] relates to NCI-H358. As to the kind of experiment: Cell proliferation assay, 3D, CellTiter-Glo 3D. It is filed as cell-based, human. Conditions: Homo sapiens, 72 h; NCI-H358 (KRAS G12C), 3D ultra-low attachment, 3 days; read-out: anit-prolif. H358 IC50. How it is done: b. Cell Proliferation Assay
Low IC50 values are indicative of high potency of the compounds in this assay setting.
Cell proliferation assay is performed in three-dimensional (3D) ultra-low conditions with the human cell line NCI-H358, a human non-small cell lung cancer (NSCLC) cell line with a KRAS G12C mutation.
• 96-well Clear Round Bottom Ultra-Low Attachment Microplate (Corning, Cat. 7007) • 96-well Flat Clear Bottom White Polystyrene TC-treated Microplates (Corning, Cat. 3610) • RPMI-1640 Medium (Gibco, Cat. 22400105) • Fetal Bovine Serum (FBS) (Gibco, Cat. 10099141C) • 0.25% Trypsin-EDTA (Gibco, Cat. 25200056) • Penicillin-Streptomycin (Gibco, Cat. 15140122) • CellTiter-Glo 3D Cell Viability Assay (Promega, Cat. G9683)
NCI-H358 cells (ATCC, Cat. CRL-5807) are grown in cell culture flasks using RPMI medium supplemented with 10% FBS. Cells are incubated at 37° C. and 5% C02 in a humidified atmosphere, with sub-cultivation performed twice a week. Cells are trypsinized, counted and plated in 96-well ultra-low adhesion plates for 3D cell viability determination. The day after plating, serial dilutions of SOS1 inhibitor compounds are made using Tecan D300e Digital Dispenser to evaluate a concentration-dependent effect on cell viability. The concentration of the test compounds covers a range between 5 μM and 0.76 nM with serial 1:3 dilutions in 9 concentrations. 0.5 μL serial dilutions of the compounds are added in duplicates. 3 days later, the CellTiter-Glo 3D Cell Viability Assay is used to measure cell viability effects of SOS1 inhibitor compounds in 3D format. Luminescent intensity is determined using Envision (PerkinElmer). Data is analyzed and IC50 values are calculated using GraphPad Prism.
(In general: In ATP-based viability assays light output follows the ATP content of the culture.)

SOS1 and KRAS G12D, sequence (Q07889 564-1049, stated change not applied): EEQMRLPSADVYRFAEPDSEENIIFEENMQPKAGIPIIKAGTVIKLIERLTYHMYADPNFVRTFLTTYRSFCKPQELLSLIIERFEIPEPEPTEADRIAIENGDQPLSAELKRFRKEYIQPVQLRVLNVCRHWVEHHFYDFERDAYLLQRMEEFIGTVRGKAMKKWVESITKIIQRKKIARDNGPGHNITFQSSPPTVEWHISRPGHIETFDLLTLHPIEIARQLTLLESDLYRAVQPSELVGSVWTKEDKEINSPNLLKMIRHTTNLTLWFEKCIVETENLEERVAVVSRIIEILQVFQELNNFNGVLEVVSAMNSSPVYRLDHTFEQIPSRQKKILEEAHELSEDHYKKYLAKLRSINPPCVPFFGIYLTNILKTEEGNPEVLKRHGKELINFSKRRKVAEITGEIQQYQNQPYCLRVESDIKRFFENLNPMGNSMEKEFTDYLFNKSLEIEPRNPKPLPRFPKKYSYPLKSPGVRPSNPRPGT

Regarding `Cc1nc(N[C@H](C)c2cccc(C(F)F)c2F)c2cn(N3CCOCC3)c(=O)c(-c3ccc(C#N)nc3)c2n1` [Example 75, (R)-5-(4-((1-(3-(difluoromethyl)-2-fluorophenyl)ethyl)amino)-2-methyl-6-morpholino-7-oxo-6,7-dihydropyrido[4,3-]pyrimidin-8-yl)picolinonitrile], the IC50 (usually the concentration that inhibits the measured activity by half) in assay [1] is at most 15 nM; in assay [2], at most 100 nM.
On the same counts, the results for `Cc1nc(N[C@H](C)c2cccc(C(F)F)c2F)c2cn(N3CCOCC3)c(=O)c(-c3cccnc3)c2n1` [Example 45] are at most 15 nM and at most 100 nM.
In the same order, the values of `Cc1nc(N[C@H](C)c2cccc(C(F)F)c2F)c2cn(N3CCOCC3)c(=O)c(-c3ccc(C#N)c(F)c3)c2n1` [Example 62] are 15 to 150 nM and 100 to 500 nM.
On the same counts, the results for `Cc1nc(NC(C)c2cccc(C(F)F)c2)c2cn(N3CCOCC3)c(=O)cc2n1` (stereo not drawn) [Example 25] are 15 to 150 nM and 100 to 500 nM.
With `Cc1nc(N[C@H](C)c2cccc(C(F)F)c2F)c2cn(N3CCOCC3)c(=O)c(-c3ccc[nH]c3=O)c2n1` [Example 51], the figures for the concentration for half-maximal inhibition (IC50) in assay [1] and in assay [2] were at most 15 nM and over 1000 nM, respectively.
On the same counts, the results for `Cc1nc(N[C@H](C)c2cccc(C(F)F)c2F)c2cn(N3CCOCC3)c(=O)c(-c3cnc(C#N)nc3)c2n1` [Example 66] are at most 15 nM and at most 100 nM.
In the same order, the values of `Cc1nc(N[C@H](C)c2cccc(C(F)F)c2C)c2cn(N3CCOCC3)c(=O)cc2n1` [Example 21] are at most 15 nM and at most 100 nM.
In the same order, the values of `Cc1nc(N[C@H](C)c2cccc(C(F)F)c2F)c2cn(N3CCOCC3)c(=O)c(-c3ccnc(C#N)c3)c2n1` [Example 68] are at most 15 nM and 100 to 500 nM.
For the compound `Cc1nc(N[C@H](C)c2cccc(C(F)F)c2F)c2cn(N3CCN(C(=O)OC(C)(C)C)CC3)c(=O)cc2n1` [Example 4], the IC50 in assay [1] lay in the range of 15 to 150 nM; in assay [2] it was 100 to 500 nM.
In the same order, the values of `Cc1nc(N[C@H](C)c2cccc(C(F)F)c2F)c2cn(N3CCCC3=O)c(=O)cc2n1` [Example 38] are at most 15 nM and 500 to 1000 nM.
Regarding `Cc1nc(N[C@H](C)c2cccc(C(F)F)c2F)c2cn(N3CCC(O)CC3)c(=O)cc2n1` [Example 37], the IC50 in assay [1] was at most 15 nM; in assay [2], 100 to 500 nM.
For `Cc1nc(N[C@H](C)c2cccc(C(F)F)c2F)c2cn(N3CCOCC3)c(=O)c(C#N)c2n1` [Example 41, 4-[[(1R)-1-[3-(difluoromethyl)-2-fluoro-phenyl]ethyl]amino]-2-methyl-6-morpholino-7-oxo-pyrido[4,3-d]pyrimidine-8-carbonitrile], the figures for the IC50 in assay [1] and in assay [2] were 15 to 150 nM and 100 to 500 nM, respectively.
On the same counts, the results for `Cc1nc(N[C@H](C)c2cccc(C(F)F)c2F)c2cn(N3CCC(F)(F)CC3)c(=O)cc2n1` [Example 3] are at most 15 nM and 100 to 500 nM.
In the same order, the values of `Cc1ccc(-c2c(=O)n(N3CCOCC3)cc3c(N[C@H](C)c4cccc(C(F)F)c4F)nc(C)nc23)cn1` [Example 59] are at most 15 nM and at most 100 nM.
In the same order, the values of `CC(=O)N1CCN(n2cc3c(N[C@H](C)c4cccc(C(F)F)c4F)nc(C)nc3cc2=O)CC1` [Example 11, 6-(4-acetylpiperazin-1-yl)-4-[[(1R)-1-[3-(difluoromethyl)-2-fluoro-phenyl]ethyl]amino]-2-methyl-pyrido[4,3-d]pyrimidin-7-one] are at most 15 nM and 500 to 1000 nM.
Consider `Cc1nc(N[C@H](C)c2cccc(C(F)(F)CO)c2)c2cn(N3CCOCC3)c(=O)c(F)c2n1` [Example 32], for which the IC50 in assay [1] is at most 15 nM; in assay [2], at most 100 nM.
In the same order, the values of `COc1ccc(-c2c(=O)n(N3CCOCC3)cc3c(N[C@H](C)c4cccc(C(F)F)c4F)nc(C)nc23)cn1` [Example 58] are at most 15 nM and at most 100 nM.
Turning to `Cc1nc(N[C@H](C)c2cccc(C(F)F)c2F)c2cn(N3CCCCC3)c(=O)cc2n1` [Example 2], the concentration for half-maximal inhibition (IC50) is at most 15 nM in assay [1] and at most 100 nM in assay [2].
On the same counts, the results for `Cc1nc(N[C@H](C)c2cccc(C(F)F)c2F)c2cn(N3CCOCC3)c(=O)c(C3CC3)c2n1` [Example 42, 8-cyclopropyl-4-[[(1R)-1-[3-(difluoromethyl)-2-fluoro-phenyl]ethyl]amino]-2-methyl-6-morpholino-pyrido[4,3-d]pyrimidin-7-one] are at most 15 nM and 100 to 500 nM.
In the same order, the values of `Cc1nc(N[C@H](C)c2cccc(C(F)F)c2F)c2cn(N3CCOCC3)c(=O)c(C3=CCN(S(C)(=O)=O)CC3)c2n1` [Example 55] are at most 15 nM and 100 to 500 nM.
For `Cc1nc(N[C@H](C)c2cccc(C(F)F)c2F)c2cn(N3CC4(COC4)C3)c(=O)cc2n1` [Example 9], the concentration for half-maximal inhibition (IC50) in assay [1] was at most 15 nM; in assay [2] it was 100 to 500 nM.
On the same counts, the results for `Cc1nc(N[C@H](C)c2cccc(C(F)F)c2F)c2cn(N3CCOCC3)c(=O)c(-c3cc(C#N)ccc3F)c2n1` [Example 65] are 15 to 150 nM and 100 to 500 nM.
In the same order, the values of `Cc1nc(N[C@H](C)c2cccc(C(F)F)c2F)c2cn(N3CCCOCC3)c(=O)cc2n1` [Example 6] are at most 15 nM and at most 100 nM.
As for `Cc1nc(N[C@H](C)c2cccc(C(F)(F)F)c2)c2cn(N3CCOCC3)c(=O)cc2n1` [Example 20], the IC50 in assay [1] is at most 15 nM; in assay [2], at most 100 nM.
On the same counts, the results for `Cc1nc(N[C@H](C)c2cccc(C(F)(F)F)c2F)c2cn(N3CCOCC3)c(=O)cc2n1` [Example 19] are at most 15 nM and 100 to 500 nM.
As to `Cc1nc(N[C@H](C)c2cccc(C(F)F)c2F)c2cn(N3CCOCC3)c(=O)c(-c3ccc(F)nc3)c2n1` [Example 50], the figures for the IC50 in assay [1] and in assay [2] were at most 15 nM and 100 to 500 nM, respectively.
Regarding `Cc1nc(N[C@@H](C)c2cccc(C(F)F)c2C)c2cn(N3CCOCC3)c(=O)cc2n1` [Example 22], the IC50 in assay [1] was 150 to 1000 nM; in assay [2], over 1000 nM.
On the same counts, the results for `Cc1nc(N[C@H](C)c2cccc(C(F)F)c2F)c2cn(N3CCN(C(C)C)CC3)c(=O)cc2n1` [Example 12, 4-[[(1R)-1-[3-(difluoromethyl)-2-fluoro-phenyl]ethyl]amino]-6-(4-isopropylpiperazin-1-yl)-2-methyl-pyrido[4,3-d]pyrimidin-7-one] are at most 15 nM and 100 to 500 nM.
On the same counts, the results for `Cc1nc(N[C@H](C)c2cccc(C(F)F)c2F)c2cn(N(C)C)c(=O)cc2n1` [Example 34, 4-[[(1R)-1-[3-(difluoromethyl)-2-fluoro-phenyl]ethyl]amino]-6-(dimethylamino)-2-methyl-pyrido[4,3-d]pyrimidin-7-one] are at most 15 nM and 100 to 500 nM.
In the same order, the values of `Cc1nc(N[C@H](C)c2cccc(C(F)F)c2F)c2cn(N3CCOCC3)c(=O)c(-c3ccncc3)c2n1` [Example 46] are at most 15 nM and at most 100 nM.
For the compound `Cc1nc(N[C@H](C)c2cccc(C(F)F)c2F)c2cn(N3CCOCC3)c(=O)c(-c3ccc4nncn4c3)c2n1` [Example 72], the half-maximal inhibitory concentration (IC50) is at most 15 nM in assay [1] and 100 to 500 nM in assay [2].
On the same counts, the results for `Cc1nc(N[C@H](C)c2cccc(C(F)F)c2F)c2cn(N3CCOCC3)c(=O)c(-c3cnn(C)c3)c2n1` [Example 70] are at most 15 nM and 100 to 500 nM.
On the same counts, the results for `CCC(Nc1nc(C)nc2cc(=O)n(N3CCOCC3)cc12)c1cccc(C(F)(F)F)c1` (stereo not drawn) [Example 24] are 15 to 150 nM and 100 to 500 nM.
